Molecular target: human orexin 2 receptor (Homo sapiens (Human), UniProt O43614)
Experiment: Human orexin 2 receptor radioligand binding ([3H]-EMPA competition)
Settings: HEK293 stably expressing human orexin 2 receptor; 2 nM [3H]-EMPA; averages of 2-20 runs; read-out: hOX2 Ki
Method: The in vitro affinity of the compounds of the invention for the rat/human orexin 1 and human orexin 2 receptors was determined by competitive radioligand binding using [^3H](1-(5-(2-fluoro-phenyl)-2-methyl-thiazol-4-yl)-1-((S)-2-(5-phenyl-(1,3,4)oxadiazol-2-ylmethyl)-pyrrolidin-1-yl)-methanone) (Langmead et al., 2004) and [^3H]EMPA (n-ethyl-2[96-methoxy-pyridin-3-yl)-(toluene-2-sulfonyl)-amino]-N-pyridin-3-ylmethyl acetamide), respectively (Langmead et al., 2004, British Journal of Pharmacology 141:340-346; Malherbe et al., 2004, British Journal of Pharmacology 156:1326-41).
Data are analyzed using pc-Sandy macro and graphed on Graphpad Prism 5. For analysis, each concentration point is averaged from triplicate values and the averaged values are plotted on Graphpad Prism. The IC50 was determined by applying the following equation (GraphPad Prism 5.0, San Diego) for one site competition where X=log (concentration) and Y=specific binding. Top denotes the total [^3H]— (1-(5-(2-fluoro-phenyl)-2-methyl-thiazol-4-yl)-1-((S)-2-(5-phenyl-(1,3,4)oxadiazol-2-ylmethyl)-pyrrolidin-1-yl)-methanone) binding, bottom denotes the nonspecific [^3H]— (1-(5-(2-fluoro-phenyl)-2-methyl-thiazol-4-yl)-1-((S)-2-(5-phenyl-(1,3,4)oxadiazol-2-ylmethyl)-pyrrolidin-1-yl)-methanone) binding. Graphpad Prism calculates Ki value from IC50 and the pre-determined Kd values for [^3H]— (1-(5-(2-fluoro-phenyl)-2-methyl-thiazol-4-yl)-1-((S)-2-(5-phenyl-(1,3,4)oxadiazol-2-ylmethyl)-pyrrolidin-1-yl)-methanone) and [^3H]-EMPA. The Ki for each compound is then uploaded into 3DX. Each run comprises individual compounds in triplicate. The data in Table 1 and Table 2 represent averages from between 2-20 runs
Human Orexin 2 Receptor Radioligand Binding Studies
HEK293 stably expressing human orexin 2 receptor (Genebank accession number NM_001526) were grown to confluency in DMEM (Hyclone, cat # SH30022), 10% FBS, 1× Pen/Strep, 1× NaPyruvate, 10 mM HEPES, 600 μg/ml G418 media on 150 cm^2 tissue culture plates, washed with 5 mM EDTA in PBS (HyClone Dulbecco's Phosphate Buffered Saline 1× with Calcium and Magnesium, Cat # SH30264.01, hereafter referred to simply as PBS) and scraped into 50 ml tubes. After centrifugation (2K×G, 5 min at 4° C.), the supernatant was aspirated and the pellets frozen and stored at −80° C. Cells were resuspended in PBS in the presence of 1 tablet of protease inhibitor cocktail (Roche, Cat. #11836145001) per 50 mL. […] Compounds were solubilized in 100% DMSO (Acros Organics, Cat. #61042-1000) and tested over a range of 7 concentration (from 0.1 nM to 10 μM). The final concentration of DMSO in the reactions is equal to or less than 0.1%. Total and nonspecific binding was determined in the absence and presence of 10 μM almorexant. The total volume of each reaction is 200 μL (20 μL of diluted compounds, 80 μL of [^3H]-EMPA diluted in PBS and 100 μL of the cell suspension). Reactions were run for 60 min at room temperature and terminated by filtration through GF/C filter plates (PerkinElmer, Cat. #6005174) presoaked in 0.3% polyethylenimine using the cell harvester (PerkinElmer Filtermate). The plates were washed 3 times by aspirating 30 ml PBS through the plates. Plates were dried in 55° C. oven for 60 min, scintillation fluid was added, and the radioactivity was counted on a Topcount (Packard).

Sequence of human orexin 2 receptor (O43614 whole entry): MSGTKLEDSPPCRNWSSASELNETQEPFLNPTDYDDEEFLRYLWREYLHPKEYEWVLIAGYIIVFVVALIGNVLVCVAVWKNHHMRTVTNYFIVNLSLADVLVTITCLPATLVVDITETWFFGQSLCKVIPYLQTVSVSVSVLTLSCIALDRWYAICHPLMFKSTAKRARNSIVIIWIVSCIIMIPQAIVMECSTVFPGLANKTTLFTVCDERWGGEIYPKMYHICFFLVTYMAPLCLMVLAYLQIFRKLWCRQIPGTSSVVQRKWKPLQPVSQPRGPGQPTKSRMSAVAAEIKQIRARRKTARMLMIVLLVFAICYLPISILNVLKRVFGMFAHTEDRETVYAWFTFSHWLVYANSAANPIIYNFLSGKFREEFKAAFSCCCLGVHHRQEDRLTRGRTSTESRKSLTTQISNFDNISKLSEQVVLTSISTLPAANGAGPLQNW

Compound | Ki [nM]
Cc1ccc(-n2nccn2)c(C(=O)N2C(C)C3CC(Nc4cnc(C(F)(F)F)cn4)C2C3)n1 (single isomer, unassigned) [Example 6B, (6-methyl-3-(2H-1,2,3-triazol-2-yl)pyridin-2-yl)((1S*,3S*,4S*,6R*)-3-methyl-6-((5-(trifluoromethyl)pyrazin-2-yl)amino)-2-azabicyclo[2.2.1]heptan-2-yl)methanone] | 154
CC1C2CC(Nc3cnc(C(F)(F)F)cn3)C(C2)N1C(=O)c1ccccc1-n1nccn1 (racemic) [Example 5, (R/S)-(2-(2H-1,2,3-triazol-2-yl)phenyl)(3-methyl-6-((5-(trifluoromethyl)pyrazin-2-yl)amino)-2-azabicyclo[2.2.1]heptan-2-yl)methanone] | 278
C[C@@H]1[C@H]2C[C@@H](Oc3ccc(C(F)(F)F)cn3)[C@H](C2)N1C(=O)c1ncccc1-n1nccn1 (relative stereo) [Example 23, (3-(2H-1,2,3-triazol-2-yl)pyridin-2-yl)((1S*,3R*,4R*,6R*)-3-methyl-6-((5-(trifluoromethyl)pyridin-2-yl)oxy)-2-azabicyclo[2.2.1]heptan-2-yl)methanone] | 2400
CC1C2CC(Oc3ccc(C(F)(F)F)cn3)C(C2)N1C(=O)c1ccc(F)cc1-c1ncccn1 (single isomer, unassigned) [Example 17A, (4-fluoro-2-(pyrimidin-2-yl)phenyl)((1R*,3S*,4S*,6S*)-3-methyl-6-((5-(trifluoromethyl)pyridin-2-yl)oxy)-2-azabicyclo[2.2.1]heptan-2-yl)methanone] | > 10000
Cc1ccc(C(=O)N2[C@H](C)[C@H]3C[C@@H](Oc4cnc(C(F)(F)F)cn4)[C@@H]2C3)c(-n2nccn2)n1 (relative stereo) [Example 49, (6-methyl-2-(2H-1,2,3-triazol-2-yl)pyridin-3-yl)((1S*,3R*,4R*,6R*)-3-methyl-6-((5-(trifluoromethyl)pyrazin-2-yl)oxy)-2-azabicyclo[2.2.1]heptan-2-yl)methanone] | > 10000
O=C(c1ccccc1-n1nccn1)N1C(CF)C2CC(Oc3ccc(C(F)(F)F)cn3)C1C2 (racemic) [Example 73, (R/S)-(2-(2H-1,2,3-triazol-2-yl)phenyl)(3-(fluoromethyl)-6-((5-(trifluoromethyl)pyridin-2-yl)oxy)-2-azabicyclo[2.2.1]heptan-2-yl)methanone] | 2000
Cc1cnc(C(=O)N2C(C)C3CC(Nc4ccc(C(F)(F)F)cn4)C2C3)c(-n2nccn2)c1 (racemic) [Example 61, (R/S)-(5-methyl-3-(2H-1,2,3-triazol-2-yl)pyridin-2-yl)(3-methyl-6-((5-(trifluoromethyl)pyridin-2-yl)amino)-2-azabicyclo[2.2.1]heptan-2-yl)methanone] | 585
CC1C2CC(Nc3cnc(C(F)(F)F)cn3)C(C2)N1C(=O)c1ccccc1-n1nccn1 (single isomer, unassigned) [Example 5B, (2-(2H-1,2,3-triazol-2-yl)phenyl)((1S*,3S*,4S*,6R*)-3-methyl-6-((5-(trifluoromethyl)pyrazin-2-yl)amino)-2-azabicyclo[2.2.1]heptan-2-yl)methanone] | 146
CCOc1ccc(C)nc1C(=O)N1C(C)C2CC(Oc3ccc(C(F)(F)F)cn3)C1C2 (racemic) [Example 13, (R/S)-(3-ethoxy-6-methylpyridin-2-yl)(3-methyl-6-((5-(trifluoromethyl)pyridin-2-yl)oxy)-2-azabicyclo[2.2.1]heptan-2-yl)methanone] | 1600
CC1C2CC(Oc3ccc(C(F)(F)F)cn3)C(C2)N1C(=O)c1cccc(F)c1-c1ncc(F)cn1 (racemic) [Example 20, (R/S)-(3-fluoro-2-(5-fluoropyrimidin-2-yl)phenyl)(3-methyl-6-((5-(trifluoromethyl)pyridin-2-yl)oxy)-2-azabicyclo[2.2.1]heptan-2-yl)methanone] | 3100
C[C@@H]1[C@H]2C[C@@H](Oc3ccc(C(F)(F)F)cn3)[C@H](C2)N1C(=O)c1c(F)cccc1-n1nccn1 (relative stereo) [Example 30, (2-fluoro-6-(2H-1,2,3-triazol-2-yl)phenyl)((1S*,3R*,4R*,6R*)-3-methyl-6-((5-(trifluoromethyl)pyridin-2-yl)oxy)-2-azabicyclo[2.2.1]heptan-2-yl)methanone] | 689
Cc1cnc(-n2nccn2)c(C(=O)N2C(CF)C3CC(Oc4ccc(C(F)(F)F)cn4)C2C3)c1 (racemic) [Example 72] | > 10000
CCC1C2CC(Oc3ccc(C(F)(F)F)cn3)C(C2)N1C(=O)c1ccccc1-c1ncccn1 (racemic) [Example 214, (R/S)-[2-ethyl-5-[[5-(trifluoromethyl)-2-pyridyl]oxy]-3-azabicyclo[2.2.1]heptan-3-yl]-(2-pyrimidin-2-ylphenyl)methanone] | 316
[2H]C([2H])([2H])[C@]1([2H])[C@H]2C[C@@H](Oc3ccc(C(F)(F)F)cn3)[C@H](C2)N1C(=O)c1cc(F)ccc1-c1ncccn1 [Example 167, [(1R,2R,4S,5R)-2-deuterio-2-(trideuteriomethyl)-5-[[5-(trifluoromethyl)-2-pyridyl]oxy]-3-azabicyclo[2.2.1]heptan-3-yl]-(5-fluoro-2-pyrimidin-2-yl-phenyl)methanone] | 767
Cc1ccc(-n2nccn2)c(C(=O)N2C(CC(C)C)C3CC(Oc4ccc(C(F)(F)F)cn4)C2C3)n1 (racemic) [Example 210, (R/S)-[2-isobutyl-5-[[5-(trifluoromethyl)-2-pyridyl]oxy]-3-azabicyclo[2.2.1]heptan-3-yl]-[6-methyl-3-(triazol-2-yl)-2-pyridyl]methanone] | 1500
CC1C2CC(Oc3ccc(C(F)(F)F)cn3)C(C2)N1C(=O)c1ncccc1-n1nccn1 (racemic) [Example 9, (R/S)-(3-(2H-1,2,3-triazol-2-yl)pyridin-2-yl)(3-methyl-6-((5-(trifluoromethyl)pyridin-2-yl)oxy)-2-azabicyclo[2.2.1]heptan-2-yl)methanone] | 3700
CC1C2CC(Oc3ccc(C(F)(F)F)cn3)C(C2)N1C(=O)c1cc(F)ccc1-c1ncccn1 (racemic) [Example 18, (R/S)-(5-fluoro-2-(pyrimidin-2-yl)phenyl)(−3-methyl-6-((5-(trifluoromethyl)pyridin-2-yl)oxy)-2-azabicyclo[2.2.1]heptan-2-yl)methanone] | 1600
[2H]C1([2H])[C@H]2C[C@@H]([C@@H]1Oc1ccc(C(F)(F)F)cn1)N(C(=O)c1ncc(C)cc1-n1nccn1)[C@@H]2C [Example 200, [(1R,3R,4S,6R)-2,2-dideuterio-6-methyl-3-[[5-(trifluoromethyl)-2-pyridyl]oxy]-5-azabicyclo[2.2.1]heptan-5-yl]-[5-methyl-3-(triazol-2-yl)-2-pyridyl]methanone] | 1200
CC1C2CC(Oc3ccc(C(F)(F)F)cn3)C(C2)N1C(=O)c1ccc(F)cc1-c1ncccn1 (single isomer, unassigned) [Example 17B, (4-fluoro-2-(pyrimidin-2-yl)phenyl)((1S*,3R*,4R*,6R*)-3-methyl-6-((5-(trifluoromethyl)pyridin-2-yl)oxy)-2-azabicyclo[2.2.1]heptan-2-yl)methanone] | 947
CC1C2CC(Nc3cnc(C(F)(F)F)cn3)C(C2)N1C(=O)c1ccccc1-n1nccn1 (single isomer, unassigned) [Example 68A, (2-(2H-1,2,3-triazol-2-yl)phenyl)((1R*,3S*,4R*,6S*)-3-methyl-6-((5-(trifluoromethyl)pyrazin-2-yl)amino)-2-azabicyclo[2.2.1]heptan-2-yl)methanone] | > 10000

— US9611262B2, “Substituted 2-azabicycles and their use as orexin receptor modulators” (JANSSEN PHARMACEUTICA NV, priority 2014, dated 2017)
